Two molecules from BindingDB's records for patent US11980598 (Beijing Greatway Pharmaceutical Technology Co., 2024) can be followed below.

Structures are written as SMILES.

In general, IC50 refers to the concentration needed to halve the response being measured. Low readings indicate greater potency in that assay, high ones weaker potency in that assay.

The test has as its target T1, 5-hydroxytryptamine receptor 2C (Homo sapiens, UniProt P28335).
T1 sequence (P28335 whole entry): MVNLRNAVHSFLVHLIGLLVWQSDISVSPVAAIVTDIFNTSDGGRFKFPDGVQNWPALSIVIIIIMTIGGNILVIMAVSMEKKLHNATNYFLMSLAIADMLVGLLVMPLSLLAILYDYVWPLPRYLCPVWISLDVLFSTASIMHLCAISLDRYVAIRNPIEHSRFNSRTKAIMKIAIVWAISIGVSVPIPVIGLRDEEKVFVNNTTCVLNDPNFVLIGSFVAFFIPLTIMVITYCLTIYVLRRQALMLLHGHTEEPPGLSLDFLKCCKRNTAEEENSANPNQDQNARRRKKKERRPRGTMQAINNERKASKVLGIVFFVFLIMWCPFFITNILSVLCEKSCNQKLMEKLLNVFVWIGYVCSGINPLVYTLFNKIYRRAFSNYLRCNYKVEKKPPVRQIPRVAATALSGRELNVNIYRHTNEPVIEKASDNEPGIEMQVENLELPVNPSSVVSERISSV
Put plainly: 5-HT2C Receptor Binding Test. The protocol: 50 μg of the receptor membrane protein 5-HT2C was added to all the tubes. […] All the tubes were added with 40 μL of [3H]-LSD (lysergic acid diethylamide), respectively. […] The filter paper was taken out and dried by baking, and then placed in a scintillation bottle. 1 mL of the scintillation liquid was added, and the radioactive intensity was measured by a liquid scintillation counter

`COc1cc2c(CCNC(C)=O)cccc2cc1F` [US11980598, Compound 4]: the IC50 stood at 0.0208 µM. Then `COc1cc2c(CCNC(C)=O)cccc2cc1Cl` [US11980598, Compound 1], with 0.00077 µM.
